Entries after “also recorded” stand apart in the source; their conditions may differ.

The values that follow come from US20080260774A1, “Alpha-galactosyl ceramide analogs and their use as immunotherapies” (priority 2007, published 2008).

Test [1] deals with BALB/c mice. Nature of the test: Expansion/activation of mouse splenocyte subpopulations 72 h after injection. It is filed as in vivo. Particulars: for total and mature DCs: FIGS. 26B, 28B and 30B; for total and mature DCs / activation of B cells: compared with C1; for activation of B cells: IM route; for B cell expansion: FIGS. 26E, 28E and 30E; for CD8^+/CD4^+ ratio: FIGS. 26H, 28H and 30H.

The test system of test [2] is human naïve NKTs (CD161^+CD3^+). Nature of the test: Cytokine/chemokine secretion by human naïve CD161+CD3+ NKTs co-cultured with autologous immature CD14+ DCs. It is filed as cell-based. Particulars: for IFN/IL-4 ratio (TH1/TH2 bias): normalized to DMSO control; for induction of IL-3, GM-CSF and IL-15 / secretion of IFN-γ: 10 μg/ml, 18 hour culture; for secretion of IFN-γ: compared with α-GalCer.

Test [3] relates to syngeneic lung cancer (TC1) cells. As to the kind of experiment: Lung cancer model in mice (TC1, IV inoculation). The class given is in vivo, mouse. Particulars: for anti-cancer efficacy compared with C1: IV administration.
Test [4] deals with FLU-A virus serotype H1N1 (WSN). As to the kind of experiment: Cytopathetic effect / virus titer in MDCK cells infected with H1N1 (WSN). The class given is cell-based. The procedure:
FIG. 60(A-B) show the cytopathetic effect (CPE) of Madin-Darby canine kidney (MDCK) cells in vitro. MDCK cells were pretreated with vehicle, α-GalCer or one of the α-GalCer analogs C13, C14 or C16 at 10 μg/ml for four hours, followed by infection with FLU-A virus serotype H1N1 (WSN) at 10TCID50.
BALB/c mice were treated via intranasal route with control, α-GalCer (C1) or the α-GalCer analogs C13, C14 or C16 at one hour prior to virus challenge with H1N1 (WSN). […] In general, certain α-GalCer analogs may exert direct anti-viral effects, or act indirectly via immune stimulation. […] MDCK cells were pretreated with vehicle, α-GalCer or one of the α-GalCer analogs C13, C14 or C16 at 10 μg/ml for four hours, followed by infection with FLU-A virus serotype H1N1 (WSN) at 10TCID50.

For another test, the system named is Sphingomonas capsulata. Nature of the test: Antibacterial efficacy in Sphingomonas capsulata infected mice. It is filed as in vivo, mouse. Particulars: for CFU numbers in liver: 100 μg/kg IP, 24 hour after bacterial infection. An excerpt: Sphingomonas capsulata is a common environmental bacterial strain that is found in many places such as the air and water. It can be easily identified on nutrient agar plates because of its yellow colony color. […] Since the antibacterial activities of glycolipid antigens are mediated through the activation of NKT cells by glycolipid bound-CD1-d molecules, evaluation of the antibacterial efficacies using the disease model of Sphingomonas capsulata infection will focus on the impact of the NKT mediated pathway that is activated by glycolipid bindings. Six to eight week old female C57BL/6 mice were injected IP with Sphingomonas capsulate cells. […] Twenty-four hours after bacterial infection, livers were removed from mice and homogenized. Colony formation units (CFU) of Sphingomonas capsulate in liver homogenates were determined by plating diluted samples on nutrient plates. Colonies were counted after incubation for 48 hours at 37° C. […] To confirm the antibacterial efficacies of these α-GalCer analogs, another study was conducted to repeat the study by treating infected mice with 50 μg/kg in the same disease model. […] Six to eight week old female C57BL/6 mice were injected IP with 5×10^8 Sphingomonas capsulate cells. Mice were grouped into treatment and control groups with 4-6 mice per group. Four hours after the infection, mice in the treatment group were injected IP with testing α-GalCer analogs at 50 or 100 μg/kg, and the control group mice were injected with same volumes of PBS. Twenty-four hours after bacterial infection, mice from all groups were sacrificed. Livers were removed from mice and homogenized in 0.9% NaCl, 0.02% Tween 80 using tissue homogenizers. Colony formation units (CFU) of Sphingomonas capsulate in liver homogenates were determined by plating diluted samples on nutrient plates. Colonies were counted after incubation for 48 hours at 37° C.

The test system of test [5] is BALB/c mice. Nature of the test: Mouse serum cytokines/chemokines after IV, SubQ or IM injection. The class given is in vivo. Particulars: for serum IL-2, IL-12, MIP-1β and MCP-1: IV administration.
The test system of test [6] is FLU-A virus serotype H1N1 (WSN). As to the kind of experiment: Influenza virus H1N1 (WSN) infection in BALB/c mice. Particulars: mouse, in vivo.
Test [7] has as its system syngeneic breast cancer (4T1). As to the kind of experiment: Breast cancer model in mice (4T1, SubQ inoculation). It is filed as in vivo, mouse.
In test [8] the test system is extracellular domain of the M2 protein of the H1N1 subtype of the Influenza A virus. Particulars: mouse, in vivo.
For the next test, the system named is naïve CD161^+/CD3^+ NKTs. As to the kind of experiment: Human NKT TCR activation (phosphoproteins), glycolipid presented by HeLa, HeLa-CD1d or iDCs, 10 μg/ml. It is filed as cell-based. Particulars: for intracellular phospho-CD3ε / phospho-ERK1/2: 10 μg/ml.
The test system of a further test is tetanus toxoid (TT). Particulars: mouse, in vivo.
The test system of test [9] is H5 of avian influenza viruses (pHA). The class given is in vivo, mouse. Particulars: mouse, in vivo.
The subject of a further test is C57BL/6 mice. Nature of the test: Expansion of NKT subsets in spleens of C57BL/6 mice. The class given is in vivo. Particulars: C57BL/6 Wt, 72 h post IV injection, 0.1 μg per mouse.
Test [10] relates to primary naïve human iNKTs. Nature of the test: Cytokine production by primary naïve human iNKTs cultured with autologous immature DCs. The class given is cell-based. Particulars: compared with C11.

Take `CCCCCCCCCCCCCCCCCCCCCCCCCC(=O)N[C@@H](CO[C@H]1O[C@H](CO)[C@H](O)[C@H](O)[C@H]1O)[C@H](O)[C@H](O)CCCCc1ccccc1` [C12]: in the test on BALB/c mice [1], the “total and mature DCs” value is “significantly greater rises in total and mature DCs than C1”; the “activation of B cells” value was “stronger activations of B cells than C1”. Further, the “expansion/activation of NKs and NKTs” value in the test with BALB/c mice [1] (FIGS. 26C-D, 28C-D and 30C-D) was “best capacity for expansion/activation of NKs and NKTs”. In addition, the “CD8^+ T cell expansion/activation” value with BALB/c mice [1] (FIGS. 26F, 28F and 30F) was “more active than C1”. The “IFN/IL-4 ratio (TH1/TH2 bias)” value in test [2] is on record as “more TH1-biased”. Moreover, in test [3], the “anti-cancer efficacy compared with C1” value is listed as “significantly greater anti-cancer efficacy than C1”.

Regarding `CCCCCCCCCCCCCC[C@@H](O)[C@@H](O)[C@H](CO[C@H]1O[C@H](CO)[C@H](O)[C@H](O)[C@H]1O)NC(=O)CCCCCCCCCCc1ccccc1` [C16], in the test with BALB/c mice [1], the “total and mature DCs” value was “significantly greater rises in total and mature DCs than C1”; the B cell expansion entry was “most effective in B cell expansion”; the “CD8^+/CD4^+ ratio” value is “more potent than C1”; the “activation of B cells” value is recorded as “stronger activations of B cells than C1”. The expansion of splenocytes entry with BALB/c mice [1] (IV administration, 72 hours) is on record as “greater potency than C1”. In the test on BALB/c mice [1] (SubQ route), the “CD4^+ T cells” value is reported as “more active over control” and the “CD8^+ T cells” value is listed as “more activity than C1”. Further, in the test on BALB/c mice [1] (mouse, in vivo), the “CD8^+ T cell expansion/activation” value is recorded as “comparable activities as C1; also recorded: more active than C1”; the “NK and NKT expansion/activation” value was “comparable activities as C1”; the “expansion/activation of NKs and NKTs” value was “best capacity for expansion/activation of NKs and NKTs”. Also, in [2], the “induction of IL-3, GM-CSF and IL-15” value is “greater induction of IL-3, granulocyte/macrophage colony-stimulating factor (GM-CSF), and IL-15”; the “secretion of IFN-γ” value was “significantly greater secretion of IFN-γ than α-GalCer”. The “entry/replication of H1N1 virus (virus titer)” value in test [4] is “slight inhibition of the entry/replication of H1N1 virus in vitro”. Moreover, in the test on Sphingomonas capsulata (50 μg/kg), the “antibacterial efficacies (CFU in liver)” value is on record as “significant in comparison to the untreated group”. Further, in the test with Sphingomonas capsulata, the “CFU numbers in liver” value is on record as “significantly lower than the control group”. For the same compound, the “IFN-γ/IL-4 ratio (TH1/TH2 bias)” value in the test with BALB/c mice [5] (2 hours, IV route, compared with C1) is “less TH2 responses than C1”. In the test with BALB/c mice [5], the “serum IL-2, IL-12, MIP-1β and MCP-1” value was “striking rises in IL-2, IL-12, MIP-1β and MCP-1”. Besides, the “serum level of IFN-γ” value in the test with BALB/c mice [5] (IV route, over 72 hours) is reported as “level of activity close to that of C1”. The “cumulative proportion of survival” value in [6] (ip) is “prolonged survival”. Further, in [7] (SubQ delivery), the “effects on survival compared with C1” value was “did not differ significantly from that of C1”; the “suppression of tumor size compared with C1” value is “significantly greater suppression of tumor size than C1”; the “tumor growth and survival compared to control” value was “able to suppress tumor growth and prolong survival as compared to control”. Further, the “anti-cancer efficacy compared with C1” value in test [3] was “significantly greater anti-cancer efficacy than C1”.

In the case of `CCCCCCCCCCCCCC[C@@H](O)[C@@H](O)[C@H](CO[C@H]1O[C@H](CO)[C@H](O)[C@H](O)[C@H]1O)NC(=O)CCCCCCCc1ccccc1` [C11], in test [8], the “adjuvant effect (comparison)” value is recorded as “best adjuvant effect which was equivalent to complete Freund's adjuvant (CFA)” and the “titer relative to C1” value came out at 3 fold. For the same compound, the TCR activation entry with naïve CD161^+/CD3^+ NKTs (CD1d-dependent, HeLa-CD1d or DCs) was “stronger in TCR activation than compounds C1 and C17”. In addition, the “intracellular phospho-CD3ε” value with naïve CD161^+/CD3^+ NKTs (presented by DCs) is given as 21.3 folds. In the test on naïve CD161^+/CD3^+ NKTs (presented by HeLa-CD1d cells), the “intracellular phospho-CD3ε” value is recorded as 10 folds of control. Further, the phospho-ERK1/2 in the test on naïve CD161^+/CD3^+ NKTs (with DCs) was determined as 48.3 folds. The same compound gave a phospho-ERK1/2 with naïve CD161^+/CD3^+ NKTs (with HeLa-CD1d cells) of 14.6 folds increase. Moreover, in the test on BALB/c mice [1], the “CD8^+/CD4^+ ratio” value is “more potent than C1” and the “activation of B cells” value was “stronger activations of B cells than C1”. For the same compound, the “CD8^+ T cells” value in the test on BALB/c mice [1] (SubQ route) is listed as “more activity than C1”. In the test on BALB/c mice [1] (mouse, in vivo), the B cell expansion/activation entry was “significant activities”; the “NK and NKT expansion/activation” value is given as “comparable activities as C1”. Also, in test [2], the “induction of IL-3, GM-CSF and IL-15” value was “greater induction of IL-3, granulocyte/macrophage colony-stimulating factor (GM-CSF), and IL-15”; the “secretion of IFN-γ” value is on record as “significantly greater secretion of IFN-γ than α-GalCer”. In the test with Sphingomonas capsulata (50 μg/kg), the “antibacterial efficacies (CFU in liver)” value is “significant in comparison to the untreated group” and the “difference in the values of the CFU per gram liver among efficacious groups” value is “not statistically significant”. Also, in the test with Sphingomonas capsulata, the “CFU numbers in liver” value is given as “significantly lower than the control group”. Also, the “serum IL-2, IL-12, MIP-1β and MCP-1” value in the test with BALB/c mice [5] is “striking rises in IL-2, IL-12, MIP-1β and MCP-1”. Further, the survival entry in [6] is recorded as “significantly enhanced survival”. Besides, in the test on tetanus toxoid (TT), the “antibody response relative to conventional vaccine” value was about 2 fold, the “durability of adjuvant effects” value was “remarkably durable” and the “level of antibody after delayed boost compared with TT+Alum” value was “twice as high as those given TT+Alum”. Further, the tumor size result in [7] (16 days after treatment) is on record as “reduced tumor size”. Further, the “tumor growth and survival compared to control” value in test [7] (SubQ delivery) is “able to suppress tumor growth and prolong survival as compared to control”. The “tumor nodules on the lung surface” value in test [3] (sacrificed on day 16 after tumor inoculation) is “reduced number of tumor nodules on the lung surface”.

Turning to `CCCCCCCCCCCCCC[C@@H](O)[C@@H](O)[C@H](CO[C@H]1O[C@H](CO)[C@H](O)[C@H](O)[C@H]1O)NC(=O)CCCCCc1ccccc1` [C10], the B cell expansion entry in the test on BALB/c mice [1] is “more active than C1”. Moreover, the “induction of IL-3, GM-CSF and IL-15” value in [2] was “greater induction of IL-3, granulocyte/macrophage colony-stimulating factor (GM-CSF), and IL-15”. In addition, the “anti-cancer efficacy compared with C1” value in test [3] is “significantly greater anti-cancer efficacy than C1”.

`CCCCCCCCCCCCCC[C@@H](O)[C@@H](O)[C@H](CO[C@H]1O[C@H](CO)[C@H](O)[C@H](O)[C@H]1O)NC(=O)CCCCCCCCCCc1ccc(-c2ccccc2)cc1` [C26]: in test [9], the “adjuvant activities in enhancing the anti-HAc antibody titer” value is “better adjuvant activities than the others in enhancing the antibody titer”, the “anti-HA-specific IgG antibody” value is reported as “enhanced” and the effectiveness as adjuvant entry is reported as “particularly effective as adjuvants”. Further, in the test on C57BL/6 mice, the “total number of NKTs and its two subtypes NKT1 and NKT2” value is listed as “increase of total number of NKTs”. Also, in [10], the IFN-γ/IL4 ratio result is listed as “higher IFN-γ/IL4 ratio” and the IL-2 result is recorded as “higher levels of IL-2”.

Regarding `CCCCCCCCCCCCCCCCCCCCCCCCCC(=O)N[C@@H](CS[C@H]1O[C@H](CO)[C@H](O)[C@H](O)[C@H]1O)[C@H](O)[C@H](O)CCCCCCCCCCCCCC` [C4], the “IFN/IL-4 ratio (TH1/TH2 bias)” value in test [2] is recorded as “more TH2-biased”.
